The supplement of paper PMC10307832

Compound: Cc1nc(NC(=O)N2CCC[C@H]2C(N)=O)sc1-c1ccnc(C(C)(C)C(F)(F)F)c1 [Alpelisib] + C[C@]1(O)C[C@@H](c2nc(-c3ccc4ccc(-c5ccccc5)nc4c3)c3c(N)nccn32)C1 [Linsitinib] (partner 1 µM)
Assay: relative viability (nuclei count vs DMSO), 5 days (fraction); higher = more cells survive
Conditions: first compound 0.04 µM
Method in brief: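 After 5 days of treatment, lung cancer cells in 1536-well plates were fixed and stained in a single step (final 0.05% Triton X-100, 1% formaldehyde, 1 ug/ml Hoechst) and their nuclei counted on 4× images. Treatment had been applied by pin tool the day after seeding as one drug alone or as a fixed anchor-drug dose with five library-drug doses (not always all listed) in √10 steps. Relative viability is the nuclei count of treated wells divided by that of vehicle wells, and values are medians of duplicate plates.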

| Cell Line | relative viability |
| --- | --- |
| NCI-H520 | 1.01 |
| EBC-1 | 0.81 |
| NCI-H2228 | 0.762 |
| NCI-H23 | 0.527 |
| HCC-827 | 0.942 |
| NCI-H2347 | 0.997 |
| A549 | 0.647 |
| IA-LM | 0.565 |
| LXF-289 | 0.935 |
| NCI-H1666 | 0.805 |
| RERF-LC-KJ | 0.816 |
| NCI-H650 | 0.819 |
| NCI-H322M | 0.914 |
| NCI-H596 | 1.05 |
| 201T | 0.93 |

Same assay, conditions: first compound 0.1265 µM

| Cell Line | relative viability |
| --- | --- |
| NCI-H1734 | 0.885 |
| LCLC-103H | 1.19 |
| Calu-6 | 0.978 |
| LU99A | 0.477 |
| NCI-H460 | 0.722 |
| SK-LU-1 | 1.14 |
| COR-L23 | 0.889 |
| HCC-15 | 0.873 |
| NCI-H1944 | 1.2 |
| EMC-BAC-2 | 0.811 |
| NCI-H1395 | 1.17 |
| LC-2-ad | 0.798 |
| NCI-H2085 | 0.905 |
| NCI-H727 | 0.306 |
| NCI-H647 | 1.29 |
| HARA | 0.947 |
| NCI-H3122 | 0.938 |
| NCI-H358 | 0.657 |

| Cell Line | relative viability |
| --- | --- |
| CAL-12T | 0.67 |
| COR-L 105 | 0.874 |
| LCLC-97TM1 | 0.167 |
| NCI-H520 | 1.04 |
| EBC-1 | 0.822 |
| NCI-H2228 | 0.496 |
| NCI-H23 | 0.576 |
| HCC-827 | 0.979 |
| NCI-H2347 | 0.941 |
| IA-LM | 0.424 |
| LXF-289 | 0.952 |
| NCI-H1666 | 0.705 |
| RERF-LC-KJ | 0.878 |
| NCI-H650 | 0.706 |
| NCI-H322M | 0.953 |
| NCI-H596 | 1.03 |
| 201T | 0.936 |

Same assay, conditions: first compound 0.4 µM

| Cell Line | relative viability |
| --- | --- |
| NCI-H1734 | 0.875 |
| LCLC-103H | 1.25 |
| Calu-6 | 1.03 |
| LU99A | 0.548 |
| NCI-H460 | 0.516 |
| SK-LU-1 | 1.27 |
| COR-L23 | 0.856 |
| HCC-15 | 0.878 |
| NCI-H1944 | 1.17 |
| EMC-BAC-2 | 0.79 |
| NCI-H1395 | 1.42 |
| LC-2-ad | 0.839 |
| NCI-H2085 | 0.852 |
| NCI-H727 | 0.388 |
| NCI-H647 | 1.13 |
| HARA | 1.08 |
| NCI-H3122 | 1.02 |
| NCI-H358 | 0.605 |

| Cell Line | relative viability |
| --- | --- |
| CAL-12T | 0.814 |
| COR-L 105 | 0.976 |
| LCLC-97TM1 | 0.192 |
| NCI-H520 | 1.01 |
| EBC-1 | 1.02 |
| NCI-H2228 | 0.564 |
| NCI-H23 | 0.672 |
| HCC-827 | 1.04 |
| NCI-H2347 | 1.03 |
| A549 | 0.577 |
| IA-LM | 0.829 |
| LXF-289 | 1.05 |
| NCI-H1666 | 0.772 |
| RERF-LC-KJ | 0.823 |
| NCI-H650 | 0.894 |
| NCI-H322M | 0.868 |
| NCI-H596 | 0.867 |
| 201T | 0.989 |

Same assay, conditions: first compound 1.265 µM

| Cell Line | relative viability |
| --- | --- |
| NCI-H1734 | 0.71 |
| LCLC-103H | 0.892 |
| Calu-6 | 0.806 |
| LU99A | 0.427 |
| NCI-H460 | 0.261 |
| SK-LU-1 | 0.939 |
| COR-L23 | 0.69 |
| HCC-15 | 0.863 |
| NCI-H1944 | 0.858 |
| EMC-BAC-2 | 0.657 |
| NCI-H1395 | 0.82 |
| LC-2-ad | 0.724 |
| NCI-H2085 | 0.731 |
| NCI-H727 | 0.27 |
| NCI-H647 | 1.12 |
| HARA | 0.719 |
| NCI-H3122 | 0.715 |
| NCI-H358 | 0.334 |

| Cell Line | relative viability |
| --- | --- |
| CAL-12T | 0.784 |
| COR-L 105 | 0.902 |
| LCLC-97TM1 | 0.157 |
| NCI-H520 | 1.02 |
| EBC-1 | 0.825 |
| NCI-H2228 | 0.517 |
| NCI-H23 | 0.524 |
| HCC-827 | 0.925 |
| NCI-H2347 | 0.84 |
| A549 | 0.5 |
| IA-LM | 0.616 |
| LXF-289 | 0.952 |
| NCI-H1666 | 1.01 |
| RERF-LC-KJ | 0.734 |
| NCI-H650 | 0.587 |
| NCI-H322M | 0.836 |
| NCI-H596 | 0.555 |
| 201T | 0.806 |

Same assay, conditions: first compound 4 µM

| Cell Line | relative viability |
| --- | --- |
| NCI-H1734 | 0.489 |
| LCLC-103H | 0.76 |
| Calu-6 | 0.912 |
| LU99A | 0.311 |
| NCI-H460 | 0.284 |
| SK-LU-1 | 1.06 |
| COR-L23 | 0.592 |
| HCC-15 | 0.767 |
| NCI-H1944 | 0.543 |
| EMC-BAC-2 | 0.678 |
| NCI-H1395 | 1.18 |
| LC-2-ad | 0.66 |
| NCI-H2085 | 0.853 |
| NCI-H727 | 0.177 |
| NCI-H647 | 1.12 |
| HARA | 0.358 |
| NCI-H3122 | 0.675 |
| NCI-H358 | 0.397 |

| Cell Line | relative viability |
| --- | --- |
| CAL-12T | 0.76 |
| COR-L 105 | 0.841 |
| LCLC-97TM1 | 0.16 |
| NCI-H520 | 0.723 |
| EBC-1 | 0.793 |
| NCI-H2228 | 0.287 |
| NCI-H23 | 0.513 |
| HCC-827 | 0.924 |
| NCI-H2347 | 0.952 |
| A549 | 0.445 |
| IA-LM | 0.493 |
| LXF-289 | 0.996 |
| NCI-H1666 | 0.793 |
| RERF-LC-KJ | 0.749 |
| NCI-H650 | 0.807 |
| NCI-H322M | 0.75 |
| NCI-H596 | 0.477 |
| 201T | 0.917 |
